Reference: patent publication US9375000B2, “Pesticidal arylpyrrolidines” (Bayer Intellectual Property GmbH, priority 2011, dated 2016)

Legend:
Format in all cases: in vivo
[1] = tested on: Two-Spotted Spider Mite (Tetranychus urticae); assay: Two-spotted spider mite (Tetranychus urticae) spray test on kidney bean; details: after 7 days
Protocol: (§1) Unless not mentioned otherwise, the test solutions were prepared as follows:
(§2) Solvent: 3 parts by weight Dimethylformamide
(§3) Emulsifier: 1 part by weight Polyoxyethylene alkyl phenyl ether
(§4) In order to make an appropriate formulation of an active compound, 1 part by weight of the active compound is mixed with the above mentioned amount of solvent and emulsifier and the mixture is diluted with water to a prescribed concentration. Ammonium salt or ammonium salt and penetration enhancer in a dosage of 1000 ppm are added to the desired concentration if necessary.
50 to 100 adult mites of Tetranychus urticae were inoculated to leaves of kidney bean at two-leaf stage planted in a pot of 6 cm in diameter. After one day, test solution at the appropriate concentration was sprayed thereon in a sufficient amount using a spray gun. After the spraying, the plant pot was placed inside a greenhouse, and after 7 days, the acaricidal activity was calculated. An acaricidal activity of 100% means that all mites were killed, whereas an acaricidal activity of 0% means that no mite was killed.

[2] = tested on: Cucurbit Leaf Beetle (Aulacophora femoralis); assay: Cucurbit leaf beetle (Aulacophora femoralis) cucumber leaf dip test; details: after 7 days; for pest or weed control at 20 ppm: Aulacophora, foliar, 168 h, read-out: insecticidal activity
Protocol: as §1, §2, §3, §4
Leaves of cucumber were immersed in the test solution at the appropriate concentration, and the leaves were dried in air. The leaves were then put in a plastic cup containing sterilized black soil and five Aulacophora femoralis at second instar larvae were released in the cup. The cups were placed in a temperature-controlled chamber at 25° C. After 7 days, the number of dead larvae was counted, and thus the insecticidal activity was calculated. An insecticidal activity of 100% means that all larvae were killed, whereas an insecticidal activity of 0% means that no larva was killed.

[3] = tested on: Larvae of Spodoptera litura; assay: Larvae of Spodoptera litura, method using artificial feeds; details: artificial feed, after 7 days
Protocol: as §1, §2, §3, §4
[A Method Using Artificial Feeds (Trade Name: Insecta LFM, Manufactured by Nosan Corporation)]
Powdery artificial feeds (2.3 g) were added to a plastic cup (diameter: 7.5 cm, height: 4 cm) to achieve a certain thickness. Water-diluted liquid (5 ml) of the active compound prepared above having predetermined concentration was evenly poured thereto and allowed to stand until the feeds were solidified. Five of the 3rd-instar larvae of Spodoptera litura were released in respective cups, and covered. The cups were put in a temperature controlled room at 25° C. and humidity of 50 to 60%, and the number of dead larvae after 7 days was determined to calculate the pesticidal ratio. 100% pesticidal ratio means death of all the larvae, while 0% pesticidal ratio means no dead larvae.

[4] = active compound concentration 100 ppm
[5] = active compound concentration 20 ppm
[6] = active compound concentration 4 ppm

SMILES | insecticidal activity [2, 5] | insecticidal activity (pesticidal ratio) [3, 5] | insecticidal activity (pesticidal ratio) [3, 6] | also measured
CC(C)(C)OC(=O)NCc1ccc(N2CCC(c3cc(Cl)c(Cl)c(Cl)c3)(C(F)(F)F)C2O)cc1Cl (mixture of isomers) [A1-68] | – | – | – | acaricidal activity [1, 4]: 100%
CC(C)(C)OC(=O)NCc1ccc(N2CCC(c3cc(C(F)(F)F)cc(C(F)(F)F)c3)(C(F)(F)F)C2O)cc1C(F)(F)F (mixture of isomers) [A1-72] | – | – | – | insecticidal activity [2, 4]: 100%; insecticidal activity (pesticidal ratio) [3, 4]: 100%
CCC(=O)NCc1ccc(N2CCC(c3cc(Cl)cc(Cl)c3)(C(F)(F)F)C2O)cc1CC (mixture of isomers) [A1-85] | – | – | – | acaricidal activity [1, 5]: 90%
CC(=O)NCc1ccc(N2CCC(c3cc(C(F)(F)F)cc(C(F)(F)F)c3)(C(F)(F)F)C2O)cc1C (mixture of isomers) [A1-183] | 100% | 100% | – | –
CCC(=O)NCc1ccc(N2CCC(c3cc(Br)cc(Br)c3)(C(F)(F)F)C2O)nc1C(F)(F)F (mixture of isomers) [A3-178] | 100% | 100% | – | –
O=C(NCc1ccc(N2CCC(c3cc(Br)cc(Br)c3)(C(F)(F)F)C2O)nc1C(F)(F)F)C1CC1 (mixture of isomers) [A3-181] | 100% | 100% | – | –
CC(=O)NCc1ccc(N2CCC(c3cccc(C(F)(F)F)c3)(C(F)(F)F)C2O)nc1C(F)(F)F (racemic) [A3-221] | 100% | – | – | –
CC(=O)NCc1ccc(N2CCC(c3cc(Cl)cc(Cl)c3)(C(F)(F)F)C2O)cc1C(F)(F)F (stereo not drawn) [A1-34] | 100% | 100% | – | –
CC(C)(C)OC(=O)NCc1ccc(N2CCC(c3cc(C(F)(F)F)cc(C(F)(F)F)c3)(C(F)(F)F)C2O)cc1Cl (stereo not drawn) [A1-69, tert-butyl (4-{3-[3,5-bis(trifluoromethyl)phenyl]-2-hydroxy-3-(trifluoro-methyl)pyrrolidin-1-yl}-2-chlorobenzyl)carbamate] | – | – | – | pest or weed control at 20 ppm [2, 5]: 100%
CCC(=O)NCc1ccc(N2CCC(c3cc(F)cc(Cl)c3)(C(F)(F)F)C2O)cc1C(F)(F)F (stereo not drawn) [A1-239] | – | – | – | acaricidal activity [1, 5]: 100%
CCC(=O)NCc1ccc(N2CCC(c3cc(Cl)cc(Cl)c3)(C(F)(F)F)C2O)cc1 (stereo not drawn) [A1-373] | 100% | 100% | – | –
CCC(=O)NCc1ccc(N2CCC(c3cc(C(F)(F)F)cc(C(F)(F)F)c3)(C(F)(F)F)C2O)cc1 (stereo not drawn) [A1-395] | 100% | 100% | – | –
CC(=O)NCc1cc(F)c(N2CCC(c3cc(Cl)c(Cl)c(Cl)c3)(C(F)(F)F)C2O)cc1F (stereo not drawn) [A1-453] | – | – | 80% | –
O=C(NCc1cc(F)c(N2CCC(c3cc(Cl)c(Cl)c(Cl)c3)(C(F)(F)F)C2O)cc1F)C1CC1 (stereo not drawn) [A1-457] | – | – | 100% | insecticidal activity [2, 6]: 100%
O=C(NCc1cc(F)c(N2CCC(c3cc(Cl)c(Cl)c(Cl)c3)(C(F)(F)F)C2O)cc1Cl)C1CC1 (stereo not drawn) [A1-481] | – | – | 100% | insecticidal activity [2, 6]: 100%
Cc1c(CNC(=O)C2CC2)ccc(N2CCC(c3cc(Cl)c(Cl)c(Cl)c3)(C(F)(F)F)C2O)c1F (stereo not drawn) [A1-493] | – | – | 100% | insecticidal activity [2, 6]: 100%
CCC(=O)NCc1ccc(N2CCC(c3cc(Cl)cc(Cl)c3)(C(F)(F)F)C2O)nc1C(F)(F)F (stereo not drawn) [A3-2] | 100% | 100% | – | –
CC(=O)NCc1ccc(N2CCC(c3cc(C(F)(F)F)cc(C(F)(F)F)c3)(C(F)(F)F)C2O)nc1C (stereo not drawn) [A3-122] | – | 100% | 100% | –
Cc1nc(N2CCC(c3cc(C(F)(F)F)cc(C(F)(F)F)c3)(C(F)(F)F)C2O)ccc1CNC(=O)C1CC1 (stereo not drawn) [A3-126] | 100% | 100% | – | –

SMILES | insecticidal activity [2, 5] | insecticidal activity (pesticidal ratio) [3, 5] | insecticidal activity (pesticidal ratio) [3, 6] | also measured
Cc1nc(N2CCC(c3cc(C(F)(F)F)cc(C(F)(F)F)c3)(C(F)(F)F)C2O)ccc1CNC(=O)CS(C)(=O)=O (stereo not drawn) [A3-132] | – | 100% | 100% | –
CC(=O)NCc1ccc(N2CCC(c3cc(C(F)(F)F)cc(C(F)(F)F)c3)(C(F)(F)F)C2O)nc1Br (stereo not drawn) [A3-155] | 100% | 100% | 100% | insecticidal activity [2, 6]: 100%
CCC(=O)NCc1ccc(N2CCC(c3cc(C(F)(F)F)cc(C(F)(F)F)c3)(C(F)(F)F)C2O)nc1Br (stereo not drawn) [A3-156] | 100% | 100% | – | –
CCC(=O)NCc1ccc(N2CCC(c3cc(Cl)c(F)c(Cl)c3F)(C(F)(F)F)C2O)nc1Br (stereo not drawn) [A3-323] | – | – | 100% | insecticidal activity [2, 6]: 100%
O=C(NCc1cc(F)c(N2CCC(c3cc(Cl)c(Cl)c(Cl)c3)(C(F)(F)F)C2O)nc1Cl)C1CC1 (stereo not drawn) [A3-370] | – | – | 100% | insecticidal activity [2, 6]: 100%
CC(=O)NCc1cc(F)c(N2CCC(c3cc(C(F)(F)F)cc(C(F)(F)F)c3)(C(F)(F)F)C2O)nc1Cl (stereo not drawn) [A3-377] | – | – | 100% | insecticidal activity [2, 6]: 100%
C=C(C)N(Cc1ccc(N2CCC(c3cc(Cl)c(Cl)c(Cl)c3)(C(F)(F)F)C2O)nc1C(F)(F)F)C(=O)C1CC1 (stereo not drawn) [A3-424] | – | – | 100% | insecticidal activity [2, 6]: 100%
CN(C)CC(=O)NCc1cnc(N2CCC(c3cc(Cl)cc(Cl)c3)(C(F)(F)F)C2O)nc1C(F)(F)F (stereo not drawn) [A4-201] | – | – | – | insecticidal activity (pesticidal ratio) [3, 4]: 100%
O=C(NCc1cnc(N2CCC(c3cc(Cl)cc(Cl)c3)(C(F)(F)F)C2O)nc1C(F)(F)F)C1CCCN1 (stereo not drawn) [A4-202] | – | – | – | insecticidal activity (pesticidal ratio) [3, 4]: 100%
CC(C)(C)OC(=O)N1CCCC1C(=O)NCc1cnc(N2CCC(c3cc(Cl)cc(Cl)c3)(C(F)(F)F)C2O)nc1C(F)(F)F (stereo not drawn) [A4-203] | – | – | – | insecticidal activity (pesticidal ratio) [3, 4]: 80%
O=C(NCc1cnc(N2CCC(c3cc(C(F)(F)F)cc(C(F)(F)F)c3)(C(F)(F)F)C2O)nc1Cl)C1CC1 (stereo not drawn) [A4-252] | – | – | 100% | insecticidal activity [2, 6]: 100%
N#CCC(=O)NCc1cnc(N2CCC(c3cc(Cl)cc(Cl)c3)(C(F)(F)F)C2O)nc1C(F)(F)F (stereo not drawn) [A4-435] | – | – | – | acaricidal activity [1, 5]: 100%
CCC(=O)NCc1ccc(N2CC(c3cc(C(F)(F)F)cc(C(F)(F)F)c3)(C(F)(F)F)CC2O)nc1C(F)(F)F (stereo not drawn) [A′3-24, N-{[6-{4-[3,5-bis(trifluoromethyl)phenyl]-2-hydroxy-4-(trifluoromethyl)pyrrolidin-1-yl}-2-(trifluoromethyl)pyridin-3-yl]methyl}propanamide] | – | – | – | pest or weed control at 20 ppm [2, 5]: 100%; pest or weed control at 20 ppm ([3]; Spodoptera litura, 168 h, active compound concentration 20 ppm, read-out: insecticidal activity (pesticidal ratio)): 100%
CCC(=O)NCc1ccc(N2CCC(c3cc(C(F)(F)F)cc(C(F)(F)F)c3)(C(F)(F)F)C2=O)cc1 (stereo not drawn) [B1-96] | 100% | 100% | – | –
CCC(=O)NCc1ccc(N2CC(c3cc(Cl)c(Cl)c(Cl)c3)(C(F)(F)F)CC2=O)nc1C (stereo not drawn) [C1-74] | – | 100% | – | –
CCC(=O)NCc1ccc(N2CC(c3cc(Cl)cc(Cl)c3)(C(F)(F)F)CC2=O)nc1C(F)(F)F (stereo not drawn) [C3-2] | – | 100% | – | –
O=C(NCc1ccc(N2CC(c3cc(Cl)cc(Cl)c3)(C(F)(F)F)CC2=O)nc1C(F)(F)F)C1CC1 (stereo not drawn) [C3-5] | – | 100% | – | –
CCCC(=O)NCc1ccc(N2CCC(c3cc(Cl)c(Cl)c(Cl)c3)(C(F)(F)F)C2O)cc1C(F)(F)F (stereo not drawn) [a1-47] | – | 100% | – | –
N#Cc1ccc(N2CCC(c3cc(Cl)c(F)c(Cl)c3F)(C(F)(F)F)C2O)cc1C(F)(F)F (stereo not drawn) [a1-48, 4-[3-(3,5-dichloro-2,4-difluorophenyl)-2-hydroxy-3-(trifluoromethyl)-pyrrolidin-1-yl]-2-(trifluoromethyl)benzonitrile] | – | – | – | pest or weed control at 20 ppm [2, 5]: 100%
